Tests used:
Type in all cases: in vitro ADME
[1] = Liver microsomes stability, mouse; settings: for T1/2: <4.51 if % remaining at 30 min below 1%
Protocol: (§1) The objective of this study was to estimate in vitro metabolic stability of exemplary compounds of Formula (I) or a pharmaceutically acceptable salt, solvate, and/or prodrug thereof in pooled human, male rat, and male mouse liver microsomes. The concentrations of compounds in reaction systems were evaluated by LC-MS/MS for estimating the stability in pooled human, male rat, and male mouse liver microsomes. The in vitro intrinsic clearances of test compounds were determined as well.
(§2) A master solution in the “Incubation Plate” containing phosphate buffer, ultra-pure H2O, MgCl2 solution and liver microsomes was made according to Table 33. The mixture was pre-warmed at 37° C. water bath for 5 minutes.
(§3) 40 μL of 10 mM nicotinamide adenine dinucleotide phosphate (NADPH) solution was added to each well. The final concentration of NADPH was 1 mM. The negative control samples were prepared by replacing NADPH with 40 μL of ultra-pure H2O. Samples were prepared in duplicate. Negative controls were prepared in singlet.
(§4) The reaction was started with the addition of 4 μL of 200 μM exemplary test compounds of the disclosure or control compounds to each master solution to get the final concentration of 2 μM. This study was performed in duplicate.
(§5) Aliquots of 50 μL were taken from the reaction solution at 0, 15, 30, 45, and 60 minutes. The reaction solutions were stopped by the addition of 4 volumes of cold methanol with IS (100 nM alprazolam, 200 nM imipramine, 200 nM labetalol, and 2 μM ketoprofen). Samples were centrifuged at 3,220 g for 40 minutes. Aliquot of 90 μL of the supernatant was mixed with 90 μL of ultra-pure H2O and then was used for LC-MS/MS analysis.
(§6) LC/MS analysis was performed for all samples from this study using a Shimadzu liquid chromatograph separation system equipped with degasser DGU-20A5R; solvent delivery unit LC-30AD; system controller SIL-30AC; column oven CTO-30A; CTC Analytics HTC PAL System. Mass spectrometric analysis was performed using a Triple Quad™ 5500 instrument.
(§7) All calculations were carried out using Microsoft Excel. Peak area ratios of test compound to internal standard (listed in the below table) were determined from extracted ion chromatograms.
(§8) All calculations were carried out using Microsoft Excel. Peak areas were determined from extracted ion chromatograms. The slope value, k, was determined by linear regression of the natural logarithm of the remaining percentage of the parent drug vs. incubation time curve.
(§9) The in vitro half-life (in vitro t1/2) was determined from the slope value:
(§10) Conversion of the in vitro t1/2 (min) into the in vitro intrinsic clearance (in vitro CLint, in μL/min/mg proteins) was done using the following equation (mean of duplicate determinations): […]
(§11) The objective of this study was to estimate in vitro metabolic stability of exemplary compounds of Formula (I) or a pharmaceutically acceptable salt, solvate and/or prodrug thereof in pooled human, male rat and male mouse liver microsomes. The concentrations of compounds in reaction systems were evaluated by LC-MS/MS for estimating the stability in pooled human, male rat and male mouse liver microsomes. The in vitro intrinsic clearances of test compounds were determined as well.
(§12) A master solution in the “Incubation Plate” containing phosphate buffer, ultra-pure H2O, MgCl2 solution and liver microsomes was made according to Table 67. The mixture was pre-warmed at 37° C. water bath for 5 minutes.
(§13) 40 μL of 10 mM NADPH solution was added to each well. The final concentration of NADPH was 1 mM. The negative control samples were prepared by replacing NADPH with 40 μL of ultra-pure H2O. Samples were prepared in duplicate. Negative controls were prepared in singlet
(§14) Aliquots of 50 μL were taken from the reaction solution at 0, 15, 30, 45 and 60 minutes. The reaction solutions were stopped by the addition of 4 volumes of cold methanol with IS (100 nM alprazolam, 200 nM imipramine, 200 nM labetalol and 2 μM ketoprofen). […]

[2] = Liver microsomes stability, rat; settings: for CLint / T1/2: 2 μM, 0.5 mg/mL, NADPH
Protocol: as §1, §2, §3, §4, §5, §6, §7, §8, §9, §10, §11, §12, §13, §14

[3] = Liver microsomes stability, human
Protocol: as §1, §2, §3, §4, §5, §6, §7, §8, §9, §10, §11, §12, §13
Aliquots of 50 μL were taken from the reaction solution at 0, 15, 30, 45 and 60 minutes. The reaction solutions were stopped by the addition of 4 volumes of cold methanol with IS (100 nM alprazolam, 200 nM imipramine, 200 nM labetalol and 2 μM ketoprofen).

[4] = Mouse liver microsomes, 2 μM, 0.5 mg/mL, NADPH
[5] = mouse liver microsomes, With Cofactors, 0 min
[6] = mouse liver microsomes, With Cofactors, 30 min
[7] = mouse liver microsomes, With Cofactors, 60 min
[8] = mouse liver microsomes, Without Cofactors, 0 min
[9] = mouse liver microsomes, Without Cofactors, 30 min
[10] = mouse liver microsomes, Without Cofactors, 60 min
[11] = Rat liver microsomes, With Cofactors, 0 min
[12] = Rat liver microsomes, With Cofactors, 30 min
[13] = Rat liver microsomes, With Cofactors, 60 min
[14] = Rat liver microsomes, Without Cofactors, 0 min
[15] = Rat liver microsomes, Without Cofactors, 30 min
[16] = Rat liver microsomes, Without Cofactors, 60 min
[17] = rat liver microsomes, With Cofactors, 0 min
[18] = rat liver microsomes, With Cofactors, 30 min
[19] = rat liver microsomes, With Cofactors, 60 min
[20] = rat liver microsomes, Without Cofactors, 0 min
[21] = rat liver microsomes, Without Cofactors, 30 min
[22] = rat liver microsomes, Without Cofactors, 60 min
[23] = Human liver microsomes, 2 μM, 0.5 mg/mL, NADPH
[24] = human liver microsomes, With Cofactors, 0 min
[25] = human liver microsomes, With Cofactors, 30 min
[26] = human liver microsomes, With Cofactors, 60 min
[27] = human liver microsomes, Without Cofactors, 0 min
[28] = human liver microsomes, Without Cofactors, 30 min
[29] = human liver microsomes, Without Cofactors, 60 min

COc1ccc2[nH]cc(CCN(C)C)c2c1 [5-MeO-DMT]
Predicted hepatic CL ([1]; Mouse liver microsomes): 54.19 mL/min/kg
Scaled-up CLint ([1]; Mouse liver microsomes): 136.21 mL/min/kg
T1/2 [1, 4]: 44.52 min
CLint ([1]; Mouse liver microsomes, 2 μM, 0.5 mg/mL, NADPH, >307.01 if % remaining at 30 min below 1%): 31.13 μL/min/mg protein
Remaining Percentage [1, 5]: 100.00%
Remaining Percentage (%) 0 min [1, 5]: 100.00%
Remaining Percentage [1, 6]: 61.84%
Remaining Percentage (%) 30 min [1, 6]: 61.84%
Remaining Percentage [1, 7]: 39.30%
Remaining Percentage (%) 60 min [1, 7]: 39.30%
Remaining Percentage [1, 8]: 100.00%
Remaining Percentage (%) 0 min [1, 8]: 100.00%
Remaining Percentage [1, 9]: 104.76%
Remaining Percentage (%) 30 min [1, 9]: 104.76%
Remaining Percentage [1, 10]: 95.24%
Remaining Percentage (%) 60 min [1, 10]: 95.24%
Predicted hepatic CL ([2]; Rat liver microsomes): 49.02 mL/min/kg
Scaled-up CLint ([2]; Rat liver microsomes): 437.56 mL/min/kg
CLint ([2]; Rat liver microsomes): 244.17 μL/min/mg protein
T1/2 ([2]; Rat liver microsomes): 5.68 min
Remaining Percentage (%) 0 min [2, 11]: 100.00%
Remaining Percentage (%) 30 min [2, 12]: 2.57%
Remaining Percentage (%) 60 min [2, 13]: 0.36%
Remaining Percentage (%) 0 min [2, 14]: 100.00%
Remaining Percentage (%) 30 min [2, 15]: 49.55%
Remaining Percentage (%) 60 min [2, 16]: 23.82%
Remaining Percentage [2, 17]: 100.00%
Remaining Percentage [2, 18]: 2.57%
Remaining Percentage [2, 19]: 0.36%
Remaining Percentage [2, 20]: 100.00%
Remaining Percentage [2, 21]: 49.55%
Remaining Percentage [2, 22]: 23.82%
Predicted hepatic CL ([3]; Human liver microsomes): 18.09 mL/min/kg
Scaled-up CLint ([3]; Human liver microsomes): 143.22 mL/min/kg
CLint [3, 23]: 114.19 μL/min/mg protein
T1/2 [3, 23]: 12.14 min
Remaining Percentage [3, 24]: 100.00%
Remaining Percentage (%) 0 min [3, 24]: 100.00%
Remaining Percentage [3, 25]: 19.24%
Remaining Percentage (%) 30 min [3, 25]: 19.24%
Remaining Percentage [3, 26]: 3.25%
Remaining Percentage (%) 60 min [3, 26]: 3.25%
Remaining Percentage [3, 27]: 100.00%
Remaining Percentage (%) 0 min [3, 27]: 100.00%
Remaining Percentage [3, 28]: 18.58%
Remaining Percentage (%) 30 min [3, 28]: 18.58%
Remaining Percentage [3, 29]: 3.00%
Remaining Percentage (%) 60 min [3, 29]: 3.00%

O=C(O)Cc1ccccc1Nc1c(Cl)cccc1Cl [Diclofenac]
Predicted hepatic CL ([1]; Mouse liver microsomes): 54.78 mL/min/kg
Scaled-up CLint ([1]; Mouse liver microsomes): 140.00 mL/min/kg
T1/2 [1, 4]: 43.31 min
Predicted hepatic CL ([1]; mouse liver microsomes): 56.11 mL/min/kg
Scaled-up CLint ([1]; mouse liver microsomes): 149.03 mL/min/kg
CLint ([1]; mouse liver microsomes, 2 μM compound, 0.5 mg/mL microsomes): 34.06 μL/min/mg protein
Remaining Percentage [1, 5]: 100.00%
Remaining Percentage (%) 0 min [1, 5]: 100.00%
Remaining Percentage [1, 6]: 45.55%
Remaining Percentage (%) 30 min [1, 6]: 45.55%
Remaining Percentage [1, 7]: 33.71%
Remaining Percentage (%) 60 min [1, 7]: 33.71%
Remaining Percentage [1, 8]: 100.00%
Remaining Percentage (%) 0 min [1, 8]: 100.00%
Remaining Percentage [1, 9]: 89.49%
Remaining Percentage (%) 30 min [1, 9]: 89.49%
Remaining Percentage [1, 10]: 96.59%
Remaining Percentage (%) 60 min [1, 10]: 96.59%
Predicted hepatic CL ([2]; Rat liver microsomes): 41.25 mL/min/kg
Scaled-up CLint ([2]; Rat liver microsomes): 163.16 mL/min/kg
CLint ([2]; Rat liver microsomes): 91.05 μL/min/mg protein
T1/2 ([2]; Rat liver microsomes): 15.22 min
Remaining Percentage (%) 0 min [2, 11]: 100.00%
Remaining Percentage (%) 30 min [2, 12]: 11.86%
Remaining Percentage (%) 60 min [2, 13]: 6.35%
Remaining Percentage (%) 0 min [2, 14]: 100.00%
Remaining Percentage (%) 30 min [2, 15]: 102.19%
Remaining Percentage (%) 60 min [2, 16]: 100.63%
Predicted hepatic CL ([2]; rat liver microsomes): 41.22 mL/min/kg
Scaled-up CLint ([2]; rat liver microsomes): 162.69 mL/min/kg
Remaining Percentage [2, 17]: 100.00%
Remaining Percentage [2, 18]: 11.86%
Remaining Percentage [2, 19]: 6.35%
Remaining Percentage [2, 20]: 100.00%
Remaining Percentage [2, 21]: 102.19%
Remaining Percentage [2, 22]: 100.63%
Predicted hepatic CL ([3]; Human liver microsomes): 18.35 mL/min/kg
Scaled-up CLint ([3]; Human liver microsomes): 161.94 mL/min/kg
Predicted hepatic CL ([3]; human liver microsomes): 18.38 mL/min/kg
Scaled-up CLint ([3]; human liver microsomes): 164.18 mL/min/kg
Remaining Percentage [3, 24]: 100.00%
Remaining Percentage (%) 0 min [3, 24]: 100.00%
Remaining Percentage [3, 25]: 5.01%
Remaining Percentage (%) 30 min [3, 25]: 5.01%
Remaining Percentage [3, 26]: 1.77%
Remaining Percentage (%) 60 min [3, 26]: 1.77%
Remaining Percentage [3, 27]: 100.00%
Remaining Percentage (%) 0 min [3, 27]: 100.00%
Remaining Percentage [3, 28]: 112.67%
Remaining Percentage (%) 30 min [3, 28]: 112.67%
Remaining Percentage [3, 29]: 96.67%
Remaining Percentage (%) 60 min [3, 29]: 96.67%
